# Measurements from ChEMBL document CHEMBL3286257, “Development of second generation EP2 antagonists with high selectivity” (Eur J Med Chem, 2014).
# Legend:
# [1] = biological target: Prostaglandin E2 receptor EP2 subtype (Homo sapiens) (UniProt P43116); assay: Antagonist activity at EP2 receptor (unknown origin) expressed in rat C6 cells assessed as inhibition of PGE2-induced response; assay type: cell-based
# [2] = biological target: Prostaglandin E2 receptor EP4 subtype (Homo sapiens) (UniProt P35408); assay: Antagonist activity at EP4 receptor (unknown origin) expressed in rat C6 cells assessed as inhibition of PGE2-induced response; assay type: cell-based
# Homo sapiens [3] = species on record: Homo sapiens; assay: Selectivity index, ratio of KB for EP4 receptor (unknown origin) to KB for EP2 receptor (unknown origin)
# [4] = biological target: T1, Prostaglandin D2 receptor (Homo sapiens) (UniProt Q13258); assay: Antagonist activity at DP1 receptor (unknown origin) expressed in rat C6 cells by TR-FRET assay; assay type: cell-based
# T1 sequence (whole entry): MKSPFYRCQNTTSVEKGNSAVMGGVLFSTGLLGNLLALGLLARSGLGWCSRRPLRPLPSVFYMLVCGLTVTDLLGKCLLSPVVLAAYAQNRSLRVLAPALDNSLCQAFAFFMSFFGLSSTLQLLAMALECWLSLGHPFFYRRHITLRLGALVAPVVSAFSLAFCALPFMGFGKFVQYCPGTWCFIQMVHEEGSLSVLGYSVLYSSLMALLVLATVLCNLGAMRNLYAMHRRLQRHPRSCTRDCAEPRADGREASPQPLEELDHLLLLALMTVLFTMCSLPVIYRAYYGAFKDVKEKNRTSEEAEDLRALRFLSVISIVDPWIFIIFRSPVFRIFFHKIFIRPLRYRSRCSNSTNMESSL
# Homo sapiens [5] = species on record: Homo sapiens; assay: Selectivity index, ratio of KB for DP1 receptor (unknown origin) to KB for EP2 receptor (unknown origin)
# [6] = Cytotoxicity against rat C6 cells; assay type: cell-based; conditions: C6 cells
# EP2 receptor = assay: Therapeutic index, ratio of CC50 for rat C6 cells to KB for EP2 receptor (unknown origin); assay type: cell-based; conditions: read-out: TI
# [7] = biological target: Prostaglandin E2 receptor EP2 subtype (Homo sapiens) (UniProt P43116); assay: Competitive antagonist activity at human EP2 receptor assessed as inhibition of PGE2-induced response
# [8] = Metabolic stability of the compound in human liver microsomes assessed as compound remaining at 10 uM after 15 mins; assay type: ADME; conditions: read-out: Stability
# [9] = Metabolic stability of the compound in human liver microsomes assessed as compound remaining at 10 uM after 30 mins; assay type: ADME; conditions: read-out: Stability
# [10] = Metabolic stability of the compound in human liver microsomes assessed as compound remaining at 10 uM after 60 mins; assay type: ADME; conditions: read-out: Stability
# [11] = Metabolic stability of the compound in mouse liver microsomes assessed as compound remaining at 10 uM after 15 mins; assay type: ADME; conditions: read-out: Stability
# [12] = Metabolic stability of the compound in mouse liver microsomes assessed as compound remaining at 10 uM after 30 mins; assay type: ADME; conditions: read-out: Stability
# [13] = Metabolic stability of the compound in mouse liver microsomes assessed as compound remaining at 10 uM after 60 mins; assay type: ADME; conditions: read-out: Stability
# [14] = Aqueous solubility of the compound by nephelometry method; assay type: physicochemical; conditions: buffer
# [15] = Cmax in C57Bl/6 mouse at 5 mg/kg, ip; assay type: ADME, organism-based; design: dose 5 mg/kg, route intraperitoneal; conditions: in vivo
# [16] = AUClast in C57Bl/6 mouse at 5 mg/kg, ip; assay type: ADME, organism-based; design: time 0 - last, dose 5 mg/kg, route intraperitoneal; conditions: plasma
# [17] = AUC (infinity) in C57Bl/6 mouse at 5 mg/kg, ip; assay type: ADME, organism-based; design: time infinity, dose 5 mg/kg, route intraperitoneal; conditions: plasma
# [18] = Terminal half life in C57Bl/6 mouse at 5 mg/kg, ip; assay type: ADME, organism-based; design: dose 5 mg/kg, route intraperitoneal; conditions: in vivo, read-out: beta t1/2 (converted)
# [19] = Cmax in C57Bl/6 mouse at 10 mg/kg, po; assay type: ADME, organism-based; design: dose 10 mg/kg, route oral; conditions: in vivo
# [20] = biological target: Prostacyclin receptor (Homo sapiens) (UniProt P43119); assay: Antagonist activity at IP receptor (unknown origin) expressed in rat C6 cells by TR-FRET assay; assay type: cell-based
# Homo sapiens [21] = species on record: Homo sapiens; assay: Selectivity index, ratio of KB for IP receptor (unknown origin) to KB for EP2 receptor (unknown origin)
# Chain of Prostaglandin E2 receptor EP2 subtype (Homo sapiens) (P43116 whole entry): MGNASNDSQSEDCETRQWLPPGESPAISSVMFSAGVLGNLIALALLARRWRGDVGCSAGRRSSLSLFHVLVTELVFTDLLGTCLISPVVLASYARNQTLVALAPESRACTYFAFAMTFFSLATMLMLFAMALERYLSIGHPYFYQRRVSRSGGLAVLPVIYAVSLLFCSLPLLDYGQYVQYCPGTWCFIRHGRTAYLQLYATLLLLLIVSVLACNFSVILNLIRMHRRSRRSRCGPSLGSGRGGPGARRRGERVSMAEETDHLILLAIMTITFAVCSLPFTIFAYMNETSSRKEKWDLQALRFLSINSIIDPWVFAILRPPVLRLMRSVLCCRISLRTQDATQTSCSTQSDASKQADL
# Chain of Prostaglandin E2 receptor EP4 subtype (Homo sapiens) (P35408 whole entry): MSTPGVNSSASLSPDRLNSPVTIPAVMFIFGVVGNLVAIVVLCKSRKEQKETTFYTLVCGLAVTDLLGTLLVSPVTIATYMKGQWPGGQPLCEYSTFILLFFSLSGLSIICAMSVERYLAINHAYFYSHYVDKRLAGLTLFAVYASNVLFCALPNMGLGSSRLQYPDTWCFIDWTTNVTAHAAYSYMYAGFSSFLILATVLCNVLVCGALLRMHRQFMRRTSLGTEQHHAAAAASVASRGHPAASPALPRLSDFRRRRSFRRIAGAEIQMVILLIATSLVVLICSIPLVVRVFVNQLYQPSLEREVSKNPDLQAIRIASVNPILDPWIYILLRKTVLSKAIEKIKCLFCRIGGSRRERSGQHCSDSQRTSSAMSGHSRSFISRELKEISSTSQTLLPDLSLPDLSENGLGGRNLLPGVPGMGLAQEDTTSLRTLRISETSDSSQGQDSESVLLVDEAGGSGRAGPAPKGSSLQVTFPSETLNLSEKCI
# Chain of Prostacyclin receptor (Homo sapiens) (P43119 whole entry): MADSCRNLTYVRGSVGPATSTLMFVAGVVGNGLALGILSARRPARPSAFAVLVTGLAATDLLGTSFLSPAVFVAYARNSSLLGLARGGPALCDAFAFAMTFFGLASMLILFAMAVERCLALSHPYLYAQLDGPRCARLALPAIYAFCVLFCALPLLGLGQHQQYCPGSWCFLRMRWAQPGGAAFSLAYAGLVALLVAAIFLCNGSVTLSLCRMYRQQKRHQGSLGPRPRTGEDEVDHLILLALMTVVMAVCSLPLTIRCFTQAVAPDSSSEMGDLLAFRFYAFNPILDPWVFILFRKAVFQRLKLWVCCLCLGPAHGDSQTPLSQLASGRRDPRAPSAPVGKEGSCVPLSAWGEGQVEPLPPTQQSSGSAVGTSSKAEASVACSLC
structure (smiles),measurement,setting,value
CCN(CC)c1ccc(C(=O)NCCc2c(C)[nH]c3ccccc23)cc1,Kb,[1],0.0069 µM
same,Kb,[2],48 µM
same,Ratio,Homo sapiens [3],6940
same,Kb,[4],9.48 µM
same,Ratio,Homo sapiens [5],1370
same,CC50,[6],> 500 µM
same,selectivity ratio,EP2 receptor,> 72500
same,Kb,[7],0.0163 µM
same,"remaining at […], 10 µM",[8],40%
same,"remaining at 0.5 h, 10 µM",[9],20%
same,"remaining at 1 h, 10 µM",[10],5%
same,"remaining at […], 10 µM",[11],34%
same,"remaining at 0.5 h, 10 µM",[12],19%
same,"remaining at 1 h, 10 µM",[13],5%
same,solubility kinetic,[14],< 25 µM
Cc1cc2ccccc2n1CCNC(=O)c1ccc(-c2nnn[nH]2)cc1,Kb,[4],0.66 µM
same,CC50,[6],> 300 µM
same,Kb,[7],0.0164 µM
same,"remaining at […], 10 µM",[8],96%
same,"remaining at 0.5 h, 10 µM",[9],87%
same,"remaining at 1 h, 10 µM",[10],73%
same,"remaining at […], 10 µM",[11],85%
same,"remaining at 0.5 h, 10 µM",[12],75%
same,"remaining at 1 h, 10 µM",[13],57%
same,solubility kinetic,[14],257 µM
same,Cmax,[15],2.04 µg/mL
same,AUC(0-t),[16],1.58 µg·h/mL
same,AUC(0-inf),[17],1.6 µg·h/mL
same,half-life,[18],18 min
same,Cmax,[19],0.134 µM
Cc1cc2ccccc2n1CCNC(=O)c1ccc(N2CCOCC2)c(F)c1,Kb,[1],0.0257 µM
same,Kb,[2],14.5 µM
same,Ratio,Homo sapiens [3],565
same,Kb,[4],2.2 µM
same,Ratio,Homo sapiens [5],85
same,Kb,[20],5.6 µM
same,Ratio,Homo sapiens [21],217
same,CC50,[6],> 500 µM
same,selectivity ratio,EP2 receptor,> 19400
